Reference: the supplement of paper PMC10307832

Key:
Assay in all cases: relative viability (nuclei count vs DMSO), 5 days (fraction); higher = more cells survive
HCC-827 = tested on: HCC-827
Outline: (§1)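 Relative viability was taken as the ratio of nuclei in treated wells to nuclei in vehicle wells. Lung cancer cell lines in 1536-well plates received compounds by pin tool one day after seeding, either one drug alone or a fixed anchor-drug dose plus five library-drug doses (not always all listed) in √10 steps. Nuclei were counted on 4× images after 5 days of treatment, and values are medians of duplicate plates.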

LCLC-103H = tested on: LCLC-103H
Outline: as §1

H3255 = tested on: H3255
Outline: as §1

NCI-H2405 = tested on: NCI-H2405
Outline: as §1

NCI-H2087 = tested on: NCI-H2087
Outline: as §1

NCI-H520 = tested on: NCI-H520
Outline: as §1

NCI-H1793 = tested on: NCI-H1793
Outline: as §1

LU99A = tested on: LU99A
Outline: as §1

NCI-H1563 = tested on: NCI-H1563
Outline: as §1

COR-L23 = tested on: COR-L23
Outline: as §1

NCI-H838 = tested on: NCI-H838
Outline: as §1

SK-MES-1 = tested on: SK-MES-1
Outline: as §1

NCI-H2023 = tested on: NCI-H2023
Outline: as §1

EPLC-272H = tested on: EPLC-272H
Outline: as §1

NCI-H2085 = tested on: NCI-H2085
Outline: as §1

NCI-H1651 = tested on: NCI-H1651
Outline: as §1

HCC-44 = tested on: HCC-44
Outline: as §1

NCI-H1395 = tested on: NCI-H1395
Outline: as §1

NCI-H650 = tested on: NCI-H650
Outline: as §1

EMC-BAC-2 = tested on: EMC-BAC-2
Outline: as §1

NCI-H1944 = tested on: NCI-H1944
Outline: as §1

## O=c1cc(-c2cccc3c2Sc2ccccc2S3)oc(N2CCOCC2)c1 + Cc1nc(NC(=O)N2CCC[C@H]2C(N)=O)sc1-c1ccnc(C(C)(C)C(F)(F)F)c1 [Alpelisib] (partner 2 µM)
HCC-827; first compound 0.08 µM
  relative viability: 0.957
HCC-827; first compound 0.253 µM
  relative viability: 1.02
HCC-827; first compound 0.8 µM
  relative viability: 1.01
HCC-827; first compound 2.53 µM
  relative viability: 0.826
HCC-827; first compound 8 µM
  relative viability: 0.979
LCLC-103H; first compound 0.08 µM
  relative viability: 0.994
LCLC-103H; first compound 0.253 µM
  relative viability: 1.06
LCLC-103H; first compound 0.8 µM
  relative viability: 0.837
LCLC-103H; first compound 2.53 µM
  relative viability: 0.971
LCLC-103H; first compound 8 µM
  relative viability: 0.963
H3255; first compound 0.08 µM
  relative viability: 0.631
H3255; first compound 0.253 µM
  relative viability: 0.755
H3255; first compound 0.8 µM
  relative viability: 0.637
H3255; first compound 2.53 µM
  relative viability: 0.653
H3255; first compound 8 µM
  relative viability: 0.797
NCI-H2405; first compound 0.08 µM
  relative viability: 0.749
NCI-H2405; first compound 0.253 µM
  relative viability: 0.777
NCI-H2405; first compound 0.8 µM
  relative viability: 0.792
NCI-H2405; first compound 2.53 µM
  relative viability: 0.73
NCI-H2405; first compound 8 µM
  relative viability: 0.614
NCI-H2087; first compound 0.08 µM
  relative viability: 1.22
NCI-H2087; first compound 0.253 µM
  relative viability: 1.19
NCI-H2087; first compound 0.8 µM
  relative viability: 1.09
NCI-H2087; first compound 2.53 µM
  relative viability: 1.12
NCI-H2087; first compound 8 µM
  relative viability: 1.03
NCI-H520; first compound 0.08 µM
  relative viability: 0.874
NCI-H520; first compound 0.253 µM
  relative viability: 0.979
NCI-H520; first compound 0.8 µM
  relative viability: 1.09
NCI-H520; first compound 2.53 µM
  relative viability: 1.03
NCI-H520; first compound 8 µM
  relative viability: 0.971
NCI-H1793; first compound 0.08 µM
  relative viability: 0.498
NCI-H1793; first compound 0.253 µM
  relative viability: 0.782
NCI-H1793; first compound 0.8 µM
  relative viability: 0.692
NCI-H1793; first compound 2.53 µM
  relative viability: 0.55
NCI-H1793; first compound 8 µM
  relative viability: 0.689
LU99A; first compound 0.08 µM
  relative viability: 0.507
LU99A; first compound 0.253 µM
  relative viability: 0.567
LU99A; first compound 0.8 µM
  relative viability: 0.747
LU99A; first compound 2.53 µM
  relative viability: 0.504
LU99A; first compound 8 µM
  relative viability: 0.575
NCI-H1563; first compound 0.08 µM
  relative viability: 0.917
NCI-H1563; first compound 0.253 µM
  relative viability: 1.04
NCI-H1563; first compound 0.8 µM
  relative viability: 0.853
NCI-H1563; first compound 2.53 µM
  relative viability: 0.848
NCI-H1563; first compound 8 µM
  relative viability: 0.822
COR-L23; first compound 0.08 µM
  relative viability: 0.867
COR-L23; first compound 0.253 µM
  relative viability: 1.15
COR-L23; first compound 0.8 µM
  relative viability: 0.887
COR-L23; first compound 2.53 µM
  relative viability: 0.786
COR-L23; first compound 8 µM
  relative viability: 0.984
NCI-H838; first compound 0.08 µM
  relative viability: 0.967
NCI-H838; first compound 0.253 µM
  relative viability: 1.33
NCI-H838; first compound 0.8 µM
  relative viability: 0.951
NCI-H838; first compound 2.53 µM
  relative viability: 0.903
NCI-H838; first compound 8 µM
  relative viability: 1.06
SK-MES-1; first compound 0.08 µM
  relative viability: 0.864
SK-MES-1; first compound 0.253 µM
  relative viability: 1.09
SK-MES-1; first compound 0.8 µM
  relative viability: 0.993
SK-MES-1; first compound 2.53 µM
  relative viability: 0.824
SK-MES-1; first compound 8 µM
  relative viability: 0.845
NCI-H2023; first compound 0.08 µM
  relative viability: 0.593
NCI-H2023; first compound 0.253 µM
  relative viability: 0.82
NCI-H2023; first compound 0.8 µM
  relative viability: 0.59
NCI-H2023; first compound 2.53 µM
  relative viability: 0.57
NCI-H2023; first compound 8 µM
  relative viability: 0.49
EPLC-272H; first compound 0.08 µM
  relative viability: 0.966
EPLC-272H; first compound 0.253 µM
  relative viability: 1.11
EPLC-272H; first compound 0.8 µM
  relative viability: 0.987
EPLC-272H; first compound 2.53 µM
  relative viability: 0.86
EPLC-272H; first compound 8 µM
  relative viability: 0.929
NCI-H2085; first compound 0.08 µM
  relative viability: 0.907
NCI-H2085; first compound 0.253 µM
  relative viability: 0.93
NCI-H2085; first compound 0.8 µM
  relative viability: 1.05
NCI-H2085; first compound 2.53 µM
  relative viability: 0.779
NCI-H2085; first compound 8 µM
  relative viability: 0.72
NCI-H1651; first compound 0.08 µM
  relative viability: 1.02
NCI-H1651; first compound 0.253 µM
  relative viability: 1.02
NCI-H1651; first compound 0.8 µM
  relative viability: 1.08
NCI-H1651; first compound 2.53 µM
  relative viability: 0.963
NCI-H1651; first compound 8 µM
  relative viability: 1.21
HCC-44; first compound 0.08 µM
  relative viability: 0.811
HCC-44; first compound 0.253 µM
  relative viability: 0.904
HCC-44; first compound 0.8 µM
  relative viability: 0.689
HCC-44; first compound 2.53 µM
  relative viability: 0.685
HCC-44; first compound 8 µM
  relative viability: 0.753
NCI-H1395; first compound 0.08 µM
  relative viability: 1.13
NCI-H1395; first compound 0.253 µM
  relative viability: 1.13
NCI-H1395; first compound 0.8 µM
  relative viability: 1.19
NCI-H1395; first compound 2.53 µM
  relative viability: 0.907
NCI-H1395; first compound 8 µM
  relative viability: 1.05
NCI-H650; first compound 0.08 µM
  relative viability: 1.1
NCI-H650; first compound 0.253 µM
  relative viability: 1.17
NCI-H650; first compound 0.8 µM
  relative viability: 1.11
NCI-H650; first compound 2.53 µM
  relative viability: 1.07
NCI-H650; first compound 8 µM
  relative viability: 1.08
EMC-BAC-2; first compound 0.08 µM
  relative viability: 0.755
EMC-BAC-2; first compound 0.253 µM
  relative viability: 0.799
EMC-BAC-2; first compound 0.8 µM
  relative viability: 0.815
EMC-BAC-2; first compound 2.53 µM
  relative viability: 0.71
EMC-BAC-2; first compound 8 µM
  relative viability: 0.856
NCI-H1944; first compound 0.08 µM
  relative viability: 0.793
NCI-H1944; first compound 0.253 µM
  relative viability: 0.939
NCI-H1944; first compound 0.8 µM
  relative viability: 0.736
NCI-H1944; first compound 8 µM
  relative viability: 0.751
